Source: patent US11964943B2, “3,5-diarylidenyl-n-substituted-piperid-4-one-derived inhibitors of Stat3 pathway activity and uses thereof” (priority 2017, dated 2024)
Values after ≈ are worked out from the molar mass of the structure shown. “Also recorded” adds a separate entry of the source. Like-named read-outs stand apart in the source and are kept apart here.

How the values were obtained:
[1] = Aqueous solubility (MultiScreen Solubility Filter Plate, shake-flask based)
Method: Aqueous solubility of Compounds of the Invention was measured with a modified version of the MultiScreen Solubility Filter Plate protocol (Millipore). This assay was based on the shake-flask equilibrium method and utilizes UV-Vis spectroscopy to quantify the unknown samples. The assay was conducted at room temperature at pH 7.4. […] Compound of the Invention was dissolved in DMSO, and the final DMSO concentration was 5% (v/v). Each sample was analyzed by UV-Vis spectroscopy at 10 nm increments from 260-600 nm to determine the optimal wavelength for detection and construct standard curves. […] A 4:1 mixture of supernatant to acetonitrile was added to a 96-well acrylic plate and analyzed by UV-Vis spectroscopy.
Aqueous solubility was measured with a modified version of the MultiScreen Solubility Filter Plate protocol (Millipore). This assay is based on the shake-flask equilibrium method and utilizes UV-Vis spectroscopy to quantify the unknown samples. The assay is conducted at room temperature at pH 7.4. […] Each compound was dissolved in DMSO, and the final DMSO concentration was 5% (v/v). Each sample was analyzed by UV-Vis spectroscopy at 10 nm increments from 260-600 nm to determine the optimal wavelength for detection and construct standard curves. […] A 4:1 mixture of supernatant to acetonitrile was added to a 96-well acrylic plate and analyzed by UV-Vis spectroscopy.

[2] = biological target: Stat3 binding to hSIE DNA probe (Homo sapiens, UniProt P40763); test: Electrophoretic mobility shift assay (EMSA); settings: DU145 nuclear extracts
Method: Binding reactions contained 0.9 μg poly(dI-dC). Competition assays were performed by adding 100× excess cold SIE oligonucleotide (lane C) and non-specific competitor (lane M: FIRE; 5′-[sequence]-3′). The DNA-protein complexes were subjected to electrophoresis and resolved on a 5% non-denaturing polyacrylamide gel (30% acrylamide/Bis solution, Bio-Rad) in 0.5% TBE buffer containing 2.5% glycerol (pH 7.8) at 4° C. for 2 h. Once dried, the radioactive signal of the gel was visualized by exposure to Fuji medical X-ray film.
Binding reactions contained 0.9 μg poly(dI-dC). Competition assays were performed by adding 100× excess cold SIE oligonucleotide (lane C) and non-specific competitor (lane M; FIRE; 5′-[sequence]-3′). The DNA-protein complexes were subjected to electrophoresis and resolved on a 5% non-denaturing polyacrylamide gel (30% acrylamide/Bis solution, Bio-Rad) in 0.5% TBE buffer containing 2.5% glycerol (pH 7.8) at 4° C. for 2 h. Once dried, the radioactive signal of the gel was visualized by exposure to Fuji medical X-ray film.

[3] = system: Stat3, Stat1α, Stat5a and Stat5b; test: Stat selectivity: immunoblotting and TransAM STAT Family ELISA; assay type: cell-based; settings: DU145 cells, 18 h
Method: The Active Motif TransAMX Stat Family ELISA kit was utilized to study the specificity of IE-8 for Stat3, 20 μg of whole cell extract was used and Stat activity was assessed according to the manufacturer's protocol. Briefly, 30 μl of Complete Binding Buffer (provided and supplemented with 2 μl of 1M DTT and 10 μl of Herring sperm DNA per ml of Binding Buffer AM6) was added to each well used. 20 μl of sample (nuclear extract diluted in Complete Lysis Buffer) per well, were used, while Complete Lysis Buffer (provided and supplemented with 1 μl of 1 M DTT and 10 μl of Protease Inhibitor Cocktail per ml of Lysis Buffer AM1) only, was used for blanks. The plate was sealed with the provided adhesive cover and incubated for 1 hour at room temperature, with mild agitation, on a rocking platform. At the end of incubation, the wells were washed 3 times with 200 μl 1× Wash Buffer (provided). 100 μl of one of the diluted Stat antibodies (1:1000 dilution in 1× Antibody binding buffer for the Stat3, Stat1, Stat5A and Stat5B antibodies) were added to all the used wells. […] Absorbance was read on a spectrophotometer immediately thereafter, at 450 nm, with a reference wavelength of 655 nm.
TransAM® STAT Family ELIS Assay. […] 20 μg of whole cell extract was used and STAT activity was assessed according to the manufacturers protocol.

B16 (melanoma) cells = test: MTT cytotoxicity assay, B16 cells
[4] = system: MDA-MB-435 cancer cell line; test: SRB antiproliferative assay, MDA-MB-435; assay type: cell-based, human
DU145 cells [5] = test: Wound healing (scratch) assay; assay type: cell-based; settings: 1 μM for 18 h prior to wounding; untreated control closed by 36 h
Method: DU145 cells were seeded in 6-well cell culture plates with Dulbecco's modified Eagle's medium/high glucose containing 10% FBS. After the cells reached 100% confluence, the monolayer was scratched using a […] pipette tip and washed once with PBS, to remove non-adherent cells. […] After drug incubation and wound induction, the medium was replaced with fresh drug-free medium and cells were observed under the microscope at the denoted time points.

DU145 cells [6] = test: SRB growth inhibition and combination index with cisplatin, DU145; assay type: cell-based
Method: The affected fractions were calculated from the SRB or MTT assay absorbance values and were registered to derive the respective CI values and isobolograms. A CI value of less than 1 (one) indicates synergy.
(§1) The SRB assay was used to assess cell growth inhibition by IE-8 alone and in combination with cisplatin. […] For combination studies drug treatments were sequential with IE-8 applied first followed by cisplatin for 1 h. […] Absorbance was read at 540 nm and results were normalized to untreated controls. For analysis of GC50 values and statistical significance, non-linear regression analysis with a comparison of fits was performed with the GraphPad Prism 6.0 software.
as §1, with “Drug Combination studies. Sulforhodamine B (SRB) Cell Growth Inhibition Assay. The” for “The”, “8 h” for “IE-8”

L1210 (lymphoma) cells = test: MTT cytotoxicity assay, L1210 cells
DU145 cells [7] = test: Annexin V/PI apoptosis assay; assay type: cell-based; settings: DU145, 24 h, increasing concentrations
Method: Cells were seeded in 24-well plates at densities of 10×10^4 cells/well (A2780-cisplatin resistant) and 1.6×10^4 cells/well (DU145) and allowed to grow at 37° C. overnight prior to treatment. […] At the end of the drug incubations, the supernatant along with the trypsinised cells were collected in falcon tubes and spun for 3 min at 300 g. Cell pellets were resuspended in PBS and transferred to fresh Eppendorf tubes. After a final round of centrifugation, cell pellets were gently resuspended in 150 μl of a Annexin V-FITC labelled solution in binding buffer (2 μl per 150 μl buffer; Binding buffer: 10 mM Hepes/NaOH, pH 7.4, 140 mM NaCl and 2.5 mM CaCl2) and incubated in the dark at 37° C. for 15 min. Cells were subsequently stained with 150 μl of a 200 mg/mL PI-solution and samples were immediately processed with the flow cytometer. […] The data were analysed and presented using the FlowJo software.
Annexin V/Propidium iodide Apoptosis/Cell death was assessed by flow cytometry using the FITC-conjugated annexin V protein (Affymetrix, eBioscience) and propidium iodide double staining. […] Cells were subsequently counterstained with the addition of PI (200 μg/ml) and analysed on a Millipore Guava easyCyte™ 8HT flow cytometer using the InCyte software. The derived data were analysed as dot plots and quantified using the FlowJo software (TreeStar).

pStat3 = test: Immunohistochemistry of pStat3 in xenograft tissue sections; assay type: in vivo, mice; settings: A549, A431, DU145 and HCT116-oxaliplatin resistant xenografts, single dose 30 mg/kg, 24 h
Method: Mice were treated as described in the survival experiments but were sacrificed 24 h post administration of the compound or vehicle, intraperitoneally.

Sequence of Stat3 binding to hSIE DNA probe (P40763 whole entry): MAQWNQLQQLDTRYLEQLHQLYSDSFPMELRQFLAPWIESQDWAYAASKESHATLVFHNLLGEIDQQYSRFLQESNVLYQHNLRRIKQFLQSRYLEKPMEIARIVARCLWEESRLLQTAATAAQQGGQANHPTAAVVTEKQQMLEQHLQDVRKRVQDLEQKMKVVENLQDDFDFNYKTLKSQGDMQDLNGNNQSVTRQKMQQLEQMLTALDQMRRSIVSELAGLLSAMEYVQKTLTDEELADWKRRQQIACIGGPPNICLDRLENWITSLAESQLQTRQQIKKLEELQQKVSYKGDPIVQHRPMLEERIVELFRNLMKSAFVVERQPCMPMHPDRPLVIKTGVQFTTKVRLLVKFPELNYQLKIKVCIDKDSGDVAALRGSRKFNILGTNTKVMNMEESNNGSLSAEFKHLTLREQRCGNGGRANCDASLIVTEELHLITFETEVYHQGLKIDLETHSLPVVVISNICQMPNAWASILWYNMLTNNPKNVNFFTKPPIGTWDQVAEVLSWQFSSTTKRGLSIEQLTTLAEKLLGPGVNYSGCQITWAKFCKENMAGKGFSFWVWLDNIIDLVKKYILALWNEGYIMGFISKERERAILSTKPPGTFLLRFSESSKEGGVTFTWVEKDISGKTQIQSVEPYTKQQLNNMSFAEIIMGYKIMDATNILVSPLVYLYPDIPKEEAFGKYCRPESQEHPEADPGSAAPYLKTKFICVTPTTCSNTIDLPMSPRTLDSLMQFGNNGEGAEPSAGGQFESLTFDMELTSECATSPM

Molecule: 3,5-Di(3,4,5-trimethoxybenzylidene)-1-phenylpiperidin-4-one [IE-8]
- Solubility in aqueous buffer ([1]; pH 7.4, room temperature, 5% DMSO, free base): 200 ± 30 µM
- concentration blocking Stat3-DNA binding activity [2]: ≥ 0.8 µM
- selectivity for Stat3 over Stat1, Stat5a and Stat5b [3]: selective for STAT3 over STAT1
- IC50 (B16 (melanoma) cells; read-out: IC50 (μM) B16, 72 h exposure, MTT, mean of three independent experiments): ~0.3 µM
- IC50 ([4]; 48 h exposure): 0.15 µM
- time for which full wound closure was prevented (DU145 cells [5]): up to 60 h
- combination index (CI) with cisplatin (DU145 cells [6]; IE-8 18 h then cisplatin 1 h, fixed ratio 1:50): > 1
- IC50 (L1210 (lymphoma) cells; read-out: IC50 (μM) L1210, 72 h exposure, MTT, mean of three independent experiments): ~0.3 µM

Molecule: COc1cc(/C=C2\CN(c3ccccc3)C/C(=C\c3cc(OC)c(OC)c(OC)c3)C2=O)cc(OC)c1OC [IE-8, 3,5-Di(3,4,5-trimethoxybenzylidene)-1-phenylpiperidin-4-one]
- apoptotic cells (Annexin V/PI) (DU145 cells [7]): dose-dependent increase in apoptotic cells
- solubility at 6 h ([1]; aqueous buffer with 5% DMSO, pH 7.4, aqueous with cosolvent or surfactant or cyclodextrin, kinetic from dmso stock): 200 ± 30 µM (≈ 106 µg/mL)
- concentration blocking Stat3-DNA binding activity [2]: ≥ 0.8 µM
- selectivity for Stat3 over Stat1, Stat5a and Stat5b [3]: selectively inhibits pStat3^Tyr705 without inhibiting pStat1^Tyr701 or pStat5^Tyr694; also recorded: selectively inhibit the Stat3-DNA binding activity over that of Stat1α, Stat5a and Stat5b; also recorded: selective for Stat3 over Stat1, Stat5a, and Stat5b
- IC50 (B16 (melanoma) cells; Mus musculus, B16, 72 h, read-out: IC50 (μM) B16, 72 h exposure, MTT, mean of three independent experiments): 0.3 µM
- IC50 ([4]; Homo sapiens, MDA-MB-435, 48 h exposure): 0.15 µM
- time for which full wound closure was prevented (DU145 cells [5]): up to 60 h
- pStat3 levels in xenograft tissue sections (pStat3): marked and in many instances significant downregulation; also recorded: downregulation of the pStat3 levels in vivo, was achieved
- combination index (CI) with cisplatin (DU145 cells [6]; 5 μM IE-8 1 h then cisplatin 1 h, non-fixed ratio): below 1
- IC50 (L1210 (lymphoma) cells; Mus musculus, L1210, 72 h, read-out: IC50 (μM) L1210, 72 h exposure, MTT, mean of three independent experiments): 0.36 µM
